These results are taken from patent US8940690B2, “Synthetic conjugates and uses thereof” (National Institutes of Health (NIH), priority 2009, dated 2015).

Data set [1] relates to fasted normal non-diabetic rats (Male Sprague-Dawley). Put plainly: Blood glucose depression profile after subcutaneous injection. The class given is in vivo, rat.
Experimental: Subcutaneous injections of the insulin-dextran were administered using 0.25 ml of a sterilized 1×PBS solution (20 U of equivalent insulin/ml) behind the neck of fasted normal non-diabetic rats (Male Sprague-Dawley, 200-250 g, n=4). Blood samples were collected via tail vein bleeding at −15 and 0 minutes, and at 15, 30, 45, 60, 90, 120, 180, 240, 300 and 360 minutes after injection. Blood glucose values were measured using commercially available test strips (Precision Xtra, Abbott Laboratories, Abbott Park, Ill.).
This example evaluates the in vivo pharmacodynamic profile of subcutaneously administered insulin-glycogen. […] The bioactivity of the insulin-glycogen conjugate was evaluated by injecting a 2.5 equivalent U of insulin/kg dose behind the neck of fasted normal non-diabetic rats (Male Sprague-Dawley, 200-250 g, n=4). Blood samples were collected via tail vein bleeding at −15 and 0 minutes, and at 15, 30, 45, 60, 90, 120, 180, 240, 300 and 360 minutes after injection. Blood glucose values were measured using commercially available test strips (Precision Xtra, Abbott Laboratories, Abbott Park, Ill.).
The nature of data set [2]: Serum insulin (PK) profile after subcutaneous injection, Human Insulin ELISA. The class given is in vivo, rat. The conditions noted are these: 5 U/kg. (In general: An ELISA detects its analyte on a solid surface through an enzyme-linked reagent.)
Experimental: Blood samples were collected via tail vein bleeding at 0 minutes and at 30, 60, 90, 120, 150, 180, 210, 240, and 300 minutes after injection. Blood from each timepoint was centrifuged at 4 C to collect the serum. Serum insulin concentrations were subsequently measured with a commercially available ELISA kit (Human Insulin ELISA, Mercodia, Uppsala, Sweden).
This example describes the serum insulin and blood glucose depression profiles obtained for a subcutaneously administered exemplary conjugate. […] In this case, the conjugate was injected at 5 U/kg behind the neck of fasted normal non-diabetic rats (Male Sprague-Dawley, 400-500 g, n=3). […] Serum insulin concentrations were subsequently measured with a commercially available ELISA kit (Human Insulin ELISA, Mercodia, Uppsala, Sweden).
In each case, the conjugate or insulin lispro was injected at 3.5 U/kg behind the neck of fasted normal non-diabetic rats (Male Sprague-Dawley, 400-500 gm, n=6). […] Serum insulin concentrations were subsequently measured with a commercially available ELISA kit (Human Insulin ELISA, Mercodia, Uppsala, Sweden).
Blood samples were collected via tail vein bleeding at 0 minutes and at 30, 60, 90, 120, 150, 180, 210, 240, and 300 minutes after injection. […] Serum insulin concentrations were subsequently measured with a commercially available ELISA kit (Human Insulin ELISA, Mercodia, Uppsala, Sweden).
Where [3] appears, read: 0.25 ml of 20 U of equivalent insulin/ml.

“insulin-dextran: comparative insulin-dextran conjugate (dextran MW 70K) made by CNBr coupling, 10% (w/w) insulin”: in data set [1] (setting [3]), the “time serum glucose levels remain depressed post injection” value was “at least five” and the “time to reach the glucose nadir (Tnadir)” value is recorded as “about 3 hours”.

With “insulin-glycogen: comparative insulin-glycogen conjugate from oyster glycogen Type II according to US 20070099820”, the “glucose lowering compared to insulin-dextran conjugates” value in data set [1] (2.5 equivalent U of insulin/kg) is “lower glucose levels much more rapidly and to a greater extent”.

As to “B29-substituted conjugate: synthesized using TSAT-C6 as the framework, AEM as the affinity ligand, and recombinant human insulin as the drug”, the “pharmacokinetic profile (serum insulin) compared to RHI and B1-substituted conjugate” value in data set [2] is given as “statistically indistinguishable from that of RHI”.
